Key:
[1] = target: T1, human metabotropic glutamate receptor mGluR5 (Homo sapiens, UniProt P41594); assay: Cytosolic calcium studies with stably transfected cells (h5CHO), functional assay of mGluR5 receptors; type: cell-based; conditions: for IC50: Table A2, negative modulation, compounds added 5 minutes before L-quisqualic acid (~80% of the maximal signal), read-out: hIC50; for IC50 / h left shift: h5CHO cells; for h left shift / EC50: Table A1; for h left shift: left shift of agonist EC50, dose response curves in the presence of 10 µM modulator or vehicle; for EC50: positive modulators, h5CHO cells preincubated with modulator, stimulated by an EC20 concentration of L-glutamate, read-out: hEC50
T1 construct: expressed in transfected cells; host or cells: CHO-K1 (h5CHO), IPTG-inducible
T1 sequence (P41594 21-1212): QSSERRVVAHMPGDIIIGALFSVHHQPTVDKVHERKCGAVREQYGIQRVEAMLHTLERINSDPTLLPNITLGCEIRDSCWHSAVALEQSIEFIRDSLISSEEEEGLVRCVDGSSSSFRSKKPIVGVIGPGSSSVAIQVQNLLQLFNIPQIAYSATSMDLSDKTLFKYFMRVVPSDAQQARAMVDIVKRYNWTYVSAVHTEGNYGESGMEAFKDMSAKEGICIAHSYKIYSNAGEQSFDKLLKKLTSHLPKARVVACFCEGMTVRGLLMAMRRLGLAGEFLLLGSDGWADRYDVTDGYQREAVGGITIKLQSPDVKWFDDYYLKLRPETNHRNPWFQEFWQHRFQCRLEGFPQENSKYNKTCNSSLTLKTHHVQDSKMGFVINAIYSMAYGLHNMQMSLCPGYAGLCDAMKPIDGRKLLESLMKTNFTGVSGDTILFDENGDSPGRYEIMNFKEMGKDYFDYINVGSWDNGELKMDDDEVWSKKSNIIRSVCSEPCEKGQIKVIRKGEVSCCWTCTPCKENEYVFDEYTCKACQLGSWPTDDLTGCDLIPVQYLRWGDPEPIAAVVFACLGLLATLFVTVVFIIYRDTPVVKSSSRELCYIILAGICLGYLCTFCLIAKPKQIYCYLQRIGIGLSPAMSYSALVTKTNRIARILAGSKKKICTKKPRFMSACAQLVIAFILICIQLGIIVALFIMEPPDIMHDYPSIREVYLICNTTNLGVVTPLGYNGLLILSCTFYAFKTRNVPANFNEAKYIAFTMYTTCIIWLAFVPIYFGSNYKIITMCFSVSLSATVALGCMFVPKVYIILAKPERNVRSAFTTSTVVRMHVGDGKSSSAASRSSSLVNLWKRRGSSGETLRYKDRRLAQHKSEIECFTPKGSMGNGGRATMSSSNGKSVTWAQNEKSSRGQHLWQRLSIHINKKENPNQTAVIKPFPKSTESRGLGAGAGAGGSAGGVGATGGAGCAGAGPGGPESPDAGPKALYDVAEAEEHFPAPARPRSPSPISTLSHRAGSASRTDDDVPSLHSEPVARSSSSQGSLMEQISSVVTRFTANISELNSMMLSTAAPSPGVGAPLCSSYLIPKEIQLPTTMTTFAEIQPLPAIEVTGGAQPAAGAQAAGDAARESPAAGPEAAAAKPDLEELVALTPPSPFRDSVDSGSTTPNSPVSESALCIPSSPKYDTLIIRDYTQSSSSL
Procedure: Chinese hamster ovary cells (CHO-K1 cells), stably transfected for inducible expression of a human metabotropic glutamate receptor mGluR5 to form a cell line called h5CHO, are seeded into black clear bottom 96 well plates at a density of 35.000 cells per well. The standard growth medium used (Dulbecco's modified Eagle Medium, DMEM plus L-proline) contains the appropriate inducer isopropyl-β-D-thiogalactopyranosid (IPTG) to achieve optimal receptor expression. One day after seeding the growth medium is exchanged for reconstituted Ca-Kit (Molecular Devices, USA) and incubated for one hour. Ca-Kit is reconstituted in an assay buffer containing 20 mM HEPES pH 7.4, glutamic-pyruvate transaminase, pyridoxal phosphate and sodium pyruvate in Hank's balanced salt solution (HBBS). Agonistic compounds to the receptor elicit increases in cytosolic calcium which can be measured as increases in fluorescence signals by use of a fluorescence imaging plate reader (Molecular Devices). To analyze their potency to negatively modulate the Ca-response test compounds, dissolved in a final DMSO concentration of 0.5%, are added on-line 5 minutes before the agonist to the receptor (L-quisqualic acid at a concentration giving ~80% of the maximal signal). EC50 values for positive allosteric modulators were determined by stimulating the cells which have been preincubated the modulators by an EC20 concentration of L-glutamate.
(§1) The fluorescence signal increase after addition of agonist reflects the increase of cytosolic calcium. Inconsistencies in the amount of cells per well are normalised by using the spatial uniformity correction of the FLIPR operating software Screenworks. The mean of replicated temporal data (n=3-5) is calculated and used for graphical representation. For the evaluation of the pharmacology, the calcium changes in response to different concentrations of agonist or antagonist are determined using a maximum minus minimum (MaxMin) calculation.
(§2) All responses (RFU-values) are determined as percentage of control (= maximum response). EC50 and IC50 are calculated according the logistic equation using XLFit (IDBS, UK) or Prism 4.0 (GraphPad Software, USA). The compounds of the present invention have a potency (EC50 or IC50) within a range of about 0.5 nM to about 100 µM. The left shifts for positive or slient allosteric modulators (PAMs or SAMs, respectively) are determined by comparison of EC50 values from agonist dose response curves run in the presence of 10 µM modulator or vehicle (Vanejevs et al., J. Med. Chem., 2008, 51, 634-647).

mGluR5 receptors = target: T2, mGluR5 receptors (Rattus norvegicus, UniProt P31424); assay: Cytosolic calcium studies with astrocytes (FLIPR), functional assay of mGluR5 receptors; type: cell-based; conditions: for r left shift: Table A1, left shift of quisqualate EC50 in the presence and absence of 10 µM modulator; for EC50: Table A1, positive modulators, fixed concentration of quisqualate (normally 10-30 nM), read-out: rEC50
T2 construct: Primary astrocyte cultures are prepared from cortices of newborn rats; endogenous in cells; host or cells: primary cortical astrocytes from Sprague-Dawley rat pups (2-4 d old)
T2 sequence (P31424 21-1203): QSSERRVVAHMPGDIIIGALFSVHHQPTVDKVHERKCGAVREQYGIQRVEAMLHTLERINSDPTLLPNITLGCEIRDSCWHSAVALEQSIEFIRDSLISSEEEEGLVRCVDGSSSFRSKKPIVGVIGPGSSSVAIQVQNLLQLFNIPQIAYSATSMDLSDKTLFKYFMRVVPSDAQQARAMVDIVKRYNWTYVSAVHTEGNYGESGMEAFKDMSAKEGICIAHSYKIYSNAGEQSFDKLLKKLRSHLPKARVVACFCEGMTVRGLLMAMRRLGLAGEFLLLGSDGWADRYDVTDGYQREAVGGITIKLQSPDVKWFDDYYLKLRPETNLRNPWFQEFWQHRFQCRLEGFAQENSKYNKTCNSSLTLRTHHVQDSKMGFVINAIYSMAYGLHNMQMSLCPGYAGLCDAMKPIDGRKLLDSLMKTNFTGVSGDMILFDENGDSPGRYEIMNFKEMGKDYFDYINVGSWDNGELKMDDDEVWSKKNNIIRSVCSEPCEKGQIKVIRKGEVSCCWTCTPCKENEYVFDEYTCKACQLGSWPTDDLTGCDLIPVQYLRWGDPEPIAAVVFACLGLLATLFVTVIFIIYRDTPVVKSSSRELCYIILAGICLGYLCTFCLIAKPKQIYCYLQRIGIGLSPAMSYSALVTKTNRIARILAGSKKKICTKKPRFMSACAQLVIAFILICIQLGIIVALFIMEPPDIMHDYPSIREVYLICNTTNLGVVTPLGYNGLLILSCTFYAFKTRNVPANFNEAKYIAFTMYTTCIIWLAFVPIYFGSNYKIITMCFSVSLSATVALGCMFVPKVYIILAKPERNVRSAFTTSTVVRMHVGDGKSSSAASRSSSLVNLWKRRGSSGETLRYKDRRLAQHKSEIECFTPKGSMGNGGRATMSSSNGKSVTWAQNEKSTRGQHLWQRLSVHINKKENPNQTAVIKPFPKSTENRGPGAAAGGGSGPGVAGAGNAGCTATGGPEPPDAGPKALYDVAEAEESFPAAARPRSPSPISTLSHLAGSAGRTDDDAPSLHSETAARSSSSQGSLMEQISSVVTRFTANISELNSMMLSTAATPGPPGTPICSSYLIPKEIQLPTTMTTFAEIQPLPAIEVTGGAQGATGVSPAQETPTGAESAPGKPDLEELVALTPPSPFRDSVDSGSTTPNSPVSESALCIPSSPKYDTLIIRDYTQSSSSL
Procedure: Primary astrocyte cultures are prepared from cortices of newborn rats as described by Booher and Sensenbrenner (1972, Neurobiology 2(3):97-105). Briefly, Sprague-Dawley rat pups (2 - 4 d old) are decapitated and neocortices are dissected, disintegrated with a nylon filter (pore size 80 µm) and carefully triturated. The cell suspension is plated on poly-D-lysine pre-coated flasks (Costar, Netherlands) and cultivated in Dulbecco's Modified Eagle's Medium (DMEM, Invitrogen, Germany) supplemented with 10% foetal calf serum (FCS, Sigma, Germany), 4 mM glutamine and 50 µg/ml gentamycin (both Biochrom, Germany) at 37°C in a humidified atmosphere of 5% CO2/ 95% air for 7 days with exchanging the medium at day 2 and 6.
After 7 days in vitro (DIV), cells are shaken overnight at 250 rpm to remove oligodendrocytes and microglia. The next day, astrocytes are rinsed twice with CMF-PBS (calcium- and magnesium-free phosphate buffered saline, Biochrom, Germany), trypsinized and subplated on poly-D-lysine pre-coated 96-well plates (Greiner, Germany) at a density of 40,000 cells/well. 24 h after establishing the secondary culture the astrocytes are rinsed with PBS^++ (phosphate buffered saline, Biochrom, Germany) and fed with astrocyte-defined medium (ADM) consisting of DMEM containing 1x G5-supplement (Invitrogen, Germany), 0.5 µg/ml heparan sulfate, and 1.5 µg/ml fibronectin (both Sigma, Germany) (Miller et al., (1993) Brain Res. 618(1):175-8). 3 days later the medium is exchanged and the cells incubated for another 2-3 days, so that at the time of experiments astrocytes are 14-15 DIV.
The increase of cytosolic calcium after stimulation with the mGluR5 agonist L-quisqualate is measured using a fluorometric imaging plate reader (FLIPR) and the Ca-Kit (both Molecular Devices). Prior to addition of agonist or antagonist the medium is aspirated and cells are loaded for 2 h at RT with 150 µl of loading buffer consisting of Ca-sensitive dye reconstituted in sodium chloride (123 mM), potassium chloride (5.4 mM), magnesium chloride (0.8 mM), calcium chloride (1.8 mM), D-glucose (15 mM), and HEPES (20 mM), pH 7.3. Subsequently, plates are transferred to FLIPR to detect calcium increase with the addition of L-quisqualate (100 nM) measured as relative fluorescence units (RFU). If antagonists are tested, these compounds are pre-incubated for 10 minutes at RT before addition of the respective agonist.
For positive modulators, concentration-response curves for quisqualate are performed in the presence and absence of 10 µM modulator to determine the extent of potentiation / agonist potency increase. Thereafter, concentration-response curves for the positive modulator are performed in the presence of a fixed concentration of quisqualate showing the biggest window for potentiation (normally 10-30 nM).
as §1, §2

SMILES	IC50 [1] [nM]	h left shift [1]	also measured
COC(=O)N1Cc2cc(C#Cc3ccccc3)cnc2[C@H]2CCCC[C@H]21 (racemic) [Example 62, (rac)-cis-Methyl 3-(phenylethynyl)-6a,7,8,9,10,10a-hexahydrobenzo[h][1,6]naphthyridine-6(5H)-carboxylate]	1400		
CN(C)C(=O)N1CCc2ncc(C#Cc3cccc(F)c3)cc2C1 [Example 45, 3-((3-Fluorophenyl)ethynyl)-N,N-dimethyl-7,8-dihydro-1,6-naphthyridine-6(5H)-carboxamide]	114		IC50 (mGluR5 receptors; Table A2, pre-incubated 10 minutes before L-quisqualate (100 nM), read-out: rIC50): 55.9 nM
O=S(=O)(N1CCCCCC1)N1CCc2ncc(C#Cc3ccccc3)cc2C1 [Example 56, 6-(Azepan-1-ylsulfonyl)-3-(phenylethynyl)-5,6,7,8-tetrahydro-1,6-naphthyridine]		3.0-fold	r left shift (mGluR5 receptors): 3.3-fold; EC50 (mGluR5 receptors): 296 nM; EC50 [1]: 499 nM
O=S(=O)(N1CCCC1)N1CCc2ncc(C#Cc3ccccc3)cc2C1 [Example 53, 3-(Phenylethynyl)-6-(pyrrolidin-1-ylsulfonyl)-5,6,7,8-tetrahydro-1,6-naphthyridine]		1.6-fold	r left shift (mGluR5 receptors): 2.8-fold; EC50 (mGluR5 receptors): 152 nM
CN(C)C(=O)N1CCc2ncc(C#Cc3ccccc3)cc2C1 [Example 44, N,N-Dimethyl-3-(phenylethynyl)-7,8-dihydro-1,6-naphthyridine-6(5H)-carboxamide]	247		
CC(C)(C)[S+]([O-])N1CCc2ncc(C#Cc3ccccc3)cc2C1 (racemic) [Example 37, (rac)-6-(tert-Butylsulfinyl)-3-(phenylethynyl)-5,6,7,8-tetrahydro-1,6-naphthyridine]		2.5-fold	r left shift (mGluR5 receptors): 3.3-fold; EC50 (mGluR5 receptors): 508 nM; EC50 [1]: 472 nM
O=C(Oc1ccccc1)N1CCc2ncc(C#Cc3ccccc3)cc2C1 [Example 43, Phenyl 3-(phenylethynyl)-7,8-dihydro-1,6-naphthyridine-6(5H)-carboxylate]		2.4-fold	EC50 (mGluR5 receptors): 38 nM; EC50 [1]: 381 nM
O=C(N1CCCCC1)N1CCc2ncc(C#Cc3ccccc3)cc2C1 [Example 50, (3-(Phenylethynyl)-7,8-dihydro-1,6-naphthyridin-6(5H)-yl)(piperidin-1-yl)methanone]		2.1-fold	r left shift (mGluR5 receptors): 1.9-fold; EC50 [1]: 843 nM
CN(C)C(=O)N1CCc2ncc(C#Cc3cccc(N)n3)cc2C1 [Example 47, 3-((6-Aminopyridin-2-yl)ethynyl)-N,N-dimethyl-7,8-dihydro-1,6-naphthyridine-6(5H)-carboxamide]	261		
CCN(CC)C(=O)N1CCc2ncc(C#Cc3cccc(C#N)c3)cc2C1 [Example 48, 3-((3-Cyanophenyl)ethynyl)-N,N-diethyl-7,8-dihydro-1,6-naphthyridine-6(5H)-carboxamide]	194		
CC(C)(C)C(=O)N1CCc2ncc(C#Cc3cccc(N)n3)cc2C1 [Example 35, 1-(3-((6-Aminopyridin-2-yl)ethynyl)-7,8-dihydro-1,6-naphthyridin-6(5H)-yl)-2,2-dimethylpropan-1-one]	617		
Cc1cccc(C#Cc2cnc3c(c2)CS(=O)(=O)CC3)c1 [Example 68, 3-(m-Tolylethynyl)-7,8-dihydro-5H-thiopyrano[4,3-b]pyridine 6,6-dioxide]	75.5		
COC(=O)N1Cc2cc(C#Cc3cccc(F)c3)cnc2[C@H]2CCCC[C@H]21 (racemic) [Example 63, (rac)-cis-Methyl 3-((3-fluorophenyl)ethynyl)-6a,7,8,9,10,10a-hexahydrobenzo[h][1,6]naphthyridine-6(5H)-carboxylate]	1320		
COC(=O)N1Cc2cc(C#Cc3cccc(F)c3)cnc2[C@H]2CCC[C@H]21 (racemic) [Example 61, (rac)-cis-Methyl 3-((3-fluorophenyl)ethynyl)-7,8,9,9a-tetrahydro-5H-cyclopenta[h][1,6]naphthyridine-6(6aH)-carboxylate]	132		
O=C1NCC2(CCCc3ncc(C#Cc4ccccc4)cc32)O1 (racemic) [Example 10, (rac)-3'-(Phenylethynyl)-7',8'-dihydro-6'H-spiro[oxazolidine-5,5'-quinolin]-2-one]		1.8-fold	

Continued, in another order:

IC50 [1] [nM]	h left shift [1]	SMILES	also measured
203		COC1CC(C)(C)Oc2ncc(C#Cc3cccc(N)n3)cc21 (racemic) [Example 7, (rac)-6-((4-Methoxy-2,2-dimethyl-3,4-dihydro-2H-pyrano[2,3-b]pyridin-6-yl)ethynyl)pyridin-2-amine]	
695		COC1CC(C)(C)Cc2ncc(C#Cc3cn4ccccc4n3)cc21 (racemic) [Example 6, (rac)-3-(Imidazo[1,2-a]pyridin-2-ylethynyl)-5-methoxy-7,7-dimethyl-5,6,7,8-tetrahydroquinoline]	
	1.6-fold	CC1(C)c2cc(C#Cc3ccccc3)cnc2CCS1(=O)=O [Example 75, 5,5-Dimethyl-3-(phenylethynyl)-7,8-dihydro-5H-thiopyrano[4,3-b]pyridine 6,6-dioxide]	EC50 [1]: 971 nM
341		COC1CC(C)(C)Cc2ncc(C#Cc3ccccc3)cc21 (racemic) [Example 4, (rac)-5-Methoxy-7,7-dimethyl-3-(phenylethynyl)-5,6,7,8-tetrahydroquinoline]	
225		COC1CC(C)(C)Oc2ncc(C#Cc3cn4ccccc4n3)cc21 (racemic) [Example 8, (rac)-6-(Imidazo[1,2-a]pyridin-2-ylethynyl)-4-methoxy-2,2-dimethyl-3,4-dihydro-2H-pyrano[2,3-b]pyridine]	
4230		COC1CCCc2ncc(C#Cc3cccc(N)n3)cc21 (racemic) [Example 3, (rac)-6-((5-Methoxy-5,6,7,8-tetrahydroquinolin-3-yl)ethynyl)pyridin-2-amine]	
190		CN1CCC2Cc3ncc(C#Cc4ccccc4)cc3CN2C1=O (racemic) [Example 57, (rac)-8-Methyl-3-(phenylethynyl)-9,10,10a,11-tetrahydro-5H-pyrimido[1,6-g][1,6]naphthyridin-7(8H)-one]	

— patent publication EP2650284A1, “Heterocyclic derivatives as metabotropic glutamate receptor modulators” (Merz Pharma GmbH & Co. KGaA, priority 2012, dated 2013)
